Values of other authors in US20090118340A1, “Method for inhibiting and/or preventing formation of cancer metastases and seconddary malignant cancers” (priority 2007, published 2009).

System: murine leukemia L1210
Details: for cytotoxicity in cultured leukemia cells: Pharmacological Reports, 2007, 59, 216-223

## C[n+]1cccc([N+](=O)[O-])c1.[Cl-] [3-nitro-1-methylpyridinium chloride, reference compound]
  cytotoxicity in cultured leukemia cells: highest cytotoxicity

## C[n+]1cccc(C(N)=O)c1 [MNA, 1-methylnicotinamide]
  cytotoxicity in cultured leukemia cells: negligible
Observed only at very high concentration
  cytotoxicity, factor lower than 3-nitro-1-methylpyridinium chloride: about 7000
